In patent publication US9249125B2, “Pyrazole derivatives as p38 MAP inhibitors” (RESPIVERT LIMITED, priority 2012, dated 2016):

What was measured:
[1] = biological target: p38 MAPKα (Homo sapiens (Human), UniProt Q16539); assay: p38 MAPKα enzyme inhibition (FRET, Z-LYTE); assay type: biochemical
[2] = biological target: cSrc (Homo sapiens (Human), UniProt P12931); assay: c-Src enzyme inhibition (FRET, Z-LYTE); assay type: biochemical
Outline: (§1)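 Z-LYTE FRET kinase assay: enzyme (3000 or 2000 ng/mL stock, respectively) preincubated 2 h at RT with compound (4–0.004 μg/mL stocks), then FRET peptide plus ATP (800 μM stock for c-Src, 60 μM for Syk) added for 1 h. Protease development 1 h; phosphorylation from coumarin/fluorescein emission ratio.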

[3] = biological target: Syk (Homo sapiens (Human), UniProt P43405); assay: Syk enzyme inhibition (FRET, Z-LYTE); assay type: biochemical
Outline: as §1

[4] = biological target: GSK3α (Homo sapiens (Human), UniProt P49840); assay: GSK 3α enzyme inhibition (FRET, Z-LYTE); assay type: biochemical
Outline: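 GSK3α (500 ng/mL stock) was preincubated 2 hr at RT with compound (4 to 0.004 μg/mL stocks), then FRET peptide (8 μM stock) and ATP (40 μM stock) added for 1 hr. Protease development for 1 hr cleaved unphosphorylated peptide; coumarin/fluorescein emission ratio reported phosphorylation.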

[5] = test system: LPS-induced TNFα release in d-U937 cells; assay: LPS-induced TNFα release in d-U937 cells; assay type: cell-based; conditions: Homo sapiens, dU937, relative to 10 μg/mL BIRB796, read-out: LPS Induced Release of Cytokine in d-937 Cells TNFα REC50
Outline: (§2)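 First, U937 monocytes undergo PMA treatment (100 ng/mL) for 48 to 72 hr to become macrophage-type. Next, compound at final concentrations is added for 2 hr, followed by LPS at 0.1 μg/mL for 4 hr. Finally, cytokines in the supernatant are quantified by ELISA against vehicle-treated cells.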

[6] = test system: LPS-induced IL-8 release in d-U937 cells; assay: LPS-induced IL-8 release in d-U937 cells; assay type: cell-based; conditions: Homo sapiens, dU937, read-out: LPS Induced Release of Cytokine in d-937 Cells IL-8 IC50
Outline: as §2

[7] = test system: Poly I:C-induced ICAM-1 expression in BEAS2B cells; assay: Poly I:C-induced ICAM-1 expression in BEAS2B cells; assay type: cell-based; conditions: Homo sapiens, BEAS-2B, read-out: Poly IC induced ICAM1 in BEAS2B IC50
Outline: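 BEAS2B human bronchial epithelial cells pre-incubated with compound for 2 hr, then transfected with 1 μg/mL poly I:C plus Oligofectamine. At 18 hr, surface ICAM-1 measured by cell-based ELISA (HRP, OD450–655). Signal corrected for cell number by crystal violet OD595.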

[8] = test system: HRV16; assay: HRV16 induced CPE in MRC5 cells; assay type: cell-based, human rhinovirus; conditions: for HRV induced CPE in MRC5 Cells % Inhibition Observed: screened at concentrations up to 0.32 ng/mL
Experimental: The supernatants are aspirated, and then fresh media added followed by incubation for 4 days. Where appropriate, cells are pre-incubated with compound or DMSO for 2 hr, and the compounds and DMSO added again after washout of the virus.
Supernatants are aspirated and incubated with methylene blue solution (100 μL, 2% formaldehyde, 10% methanol and 0.175% Methylene Blue) for 2 hr at RT. […] The percentage inhibition for each well is calculated. The IC50 value is calculated from the concentration-response curve generated by the serial dilutions of the test compounds.

[9] = test system: d-U937 cells; assay: Cell viability: MTT assay; assay type: cell-based, human; conditions: 1 μg/mL
Outline: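 Differentiated U937 cells were exposed to compound at 1 or 10 μg/mL either 4 h in 5% FCS RPMI1640 or 24 h in 10% FCS RPMI1640, then given MTT for 1 h, DMSO-solubilised and read at 550 nm. Percent viability loss versus 0.5% DMSO vehicle; apparent gains appear negative.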

[10] = test system: LPS-induced airways neutrophilia in mice; assay: LPS-induced neutrophil accumulation in mice; assay type: in vivo; conditions: Test Substance at 0.2 mg/mL, intra tracheal, dosed 8 hr pre-LPS challenge
Experimental: Non-fasted Balb/c mice are dosed by the intra tracheal route with either vehicle, or the test substance at the indicated times (within the range 2-8 hr) before stimulation of the inflammatory response by application of an LPS challenge. At T=0, mice are placed into an exposure chamber and exposed to LPS (7.0 mL, 0.5 mg/mL solution in PBS) for 30 min). After a further 8 hr the animals are anesthetized, their tracheas cannulated and BALF extracted by infusing and then withdrawing from their lungs 1.0 mL of PBS via the tracheal catheter. Total and differential white cell counts in the BALF samples are measured using a Neubaur haemocytometer. Cytospin smears of the BALF samples are prepared by centrifugation at 200 rpm for 5 min at RT and stained using a DiffQuik stain system (Dade Behring). Cells are counted using oil immersion microscopy. Data for neutrophil numbers in BAL are shown as mean±S.E.M. (standard error of the mean). The percentage inhibition of neutrophil accumulation is calculated for each treatment relative to vehicle treatment.

cSrc, sequence (P12931 whole entry, looked up): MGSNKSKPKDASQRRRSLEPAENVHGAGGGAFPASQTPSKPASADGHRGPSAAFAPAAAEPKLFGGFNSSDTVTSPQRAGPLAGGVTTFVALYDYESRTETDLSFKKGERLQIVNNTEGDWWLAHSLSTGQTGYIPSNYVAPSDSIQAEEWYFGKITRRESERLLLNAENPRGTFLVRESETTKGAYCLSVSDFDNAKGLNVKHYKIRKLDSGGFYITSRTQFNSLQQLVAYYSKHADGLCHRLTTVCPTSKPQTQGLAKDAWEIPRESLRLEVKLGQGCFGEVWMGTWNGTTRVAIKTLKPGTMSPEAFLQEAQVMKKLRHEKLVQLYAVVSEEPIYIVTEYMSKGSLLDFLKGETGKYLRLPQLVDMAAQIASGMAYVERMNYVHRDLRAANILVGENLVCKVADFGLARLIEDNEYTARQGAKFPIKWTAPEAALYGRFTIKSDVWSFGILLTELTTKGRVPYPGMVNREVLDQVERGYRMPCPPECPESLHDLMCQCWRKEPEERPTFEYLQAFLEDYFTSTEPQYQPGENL
GSK3α, sequence (P49840 whole entry): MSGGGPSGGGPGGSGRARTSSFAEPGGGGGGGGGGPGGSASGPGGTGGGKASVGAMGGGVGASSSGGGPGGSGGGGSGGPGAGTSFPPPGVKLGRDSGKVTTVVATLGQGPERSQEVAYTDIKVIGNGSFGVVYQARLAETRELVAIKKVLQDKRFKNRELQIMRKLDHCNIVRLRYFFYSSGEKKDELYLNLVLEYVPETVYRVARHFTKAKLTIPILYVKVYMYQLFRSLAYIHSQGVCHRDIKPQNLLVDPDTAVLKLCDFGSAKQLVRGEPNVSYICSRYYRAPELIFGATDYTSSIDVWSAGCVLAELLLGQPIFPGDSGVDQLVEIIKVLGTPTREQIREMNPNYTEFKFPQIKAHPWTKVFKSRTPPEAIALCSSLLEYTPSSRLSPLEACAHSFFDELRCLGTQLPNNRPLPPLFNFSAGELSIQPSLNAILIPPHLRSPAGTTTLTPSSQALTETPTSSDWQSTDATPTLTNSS
p38 MAPKα, sequence (Q16539 whole entry): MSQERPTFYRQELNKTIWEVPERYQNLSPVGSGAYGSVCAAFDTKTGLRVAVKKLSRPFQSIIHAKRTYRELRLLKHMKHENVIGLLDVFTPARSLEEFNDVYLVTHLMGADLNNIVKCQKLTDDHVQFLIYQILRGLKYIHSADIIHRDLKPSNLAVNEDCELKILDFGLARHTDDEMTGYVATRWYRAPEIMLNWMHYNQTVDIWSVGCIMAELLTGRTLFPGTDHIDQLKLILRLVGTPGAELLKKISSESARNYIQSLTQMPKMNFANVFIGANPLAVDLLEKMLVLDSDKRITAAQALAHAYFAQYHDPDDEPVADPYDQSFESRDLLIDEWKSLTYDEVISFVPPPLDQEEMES

SMILES	IC50 [1]	IC50 [2]	IC50 [3]	IC50 [4]	EC50 [5]	IC50 [6]	IC50 [7]	HRV induced CPE in MRC5 Cells % Inhibition Observed [8]	MTT Assay Cell viability at time point in d-U937 cells 4 h [9]	MTT Assay Cell viability at time point in d-U937 cells 24 h [9]	% Inhibition of neutrophil accumulation in BAL [10]	Neutrophil numbers in BAL (+/−SEM) [10]	IC50 ([8]; Human rhinovirus sp., HRV16, MRC5, read-out: HRV induced CPE in MRC5 Cells IC50)
Cc1ccc(-n2nc(C(C)(C)C)cc2NC(=O)Nc2ccc(Oc3ccnc(Nc4ccc5c(c4)NC(=O)C5)n3)c3ccccc23)cc1 [Example 2, 1-(3-(tert-Butyl)-1-(p-tolyl)-1H-pyrazol-5-yl)-3-(4-((2-((2-oxoindolin-6-yl)amino)pyrimidin-4-yl)oxy)naphthalen-1-yl)urea]	93 nM	4 nM	18 nM	> 15600 nM	1.4 nM	1.7 nM	1.4 nM	89%	−ve (−ve and +ve indicate that the value is below and above respectively, the no significant effect threshold, defined as 30% inhibition at 1 μg/mL at the time point indicated.)	−ve (−ve and +ve indicate that the value is below and above respectively, the no significant effect threshold, defined as 30% inhibition at 1 μg/mL at the time point indicated.)			
Cc1ccc(-n2nc(C(C)(C)C)cc2NC(=O)Nc2ccc(Oc3ccnc(Nc4ccc5onc(N)c5c4)n3)c3ccccc23)cc1 [Example 5, 1-(4-((2-((3-Aminobenzo[d]isoxazol-5-yl)amino)pyrimidin-4-yl)oxy)naphthalen-1-yl)-3-(3-(tert-butyl)-1-(p-tolyl)-1H-pyrazol-5-yl)urea]	81 nM	> 1560 nM	49 nM	> 1560 nM	1.1 nM	1.7 nM	0.6 nM	100%	−ve (−ve and +ve indicate that the value is below and above respectively, the no significant effect threshold, defined as 30% inhibition at 1 μg/mL at the time point indicated.)	−ve (−ve and +ve indicate that the value is below and above respectively, the no significant effect threshold, defined as 30% inhibition at 1 μg/mL at the time point indicated.)			
COc1ccc(-n2nc(C(C)(C)C)cc2NC(=O)Nc2ccc(Oc3ccnc(Nc4ccc5[nH]ncc5c4)n3)c3ccccc23)cn1 [Example 13, 1-(4-((2-((1H-Indazol-5-yl)amino)pyrimidin-4-yl)oxy)naphthalen-1-yl)-3-(3-(tert-butyl)-1-(6-methoxypyridin-3-yl)-1H-pyrazol-5-yl)urea]	30 nM	3 nM	8 nM	> 1560 nM	1.6 nM	0.5 nM	2.4 nM		−ve (−ve and +ve indicate that the value is below and above respectively, the no significant effect threshold, defined as 30% inhibition at 1 μg/mL at the time point indicated.)	−ve (−ve and +ve indicate that the value is below and above respectively, the no significant effect threshold, defined as 30% inhibition at 1 μg/mL at the time point indicated.)	50%	8.5 ± 1.4 ×10^5/mL	
CC(C)(C)c1cc(NC(=O)Nc2ccc(Oc3ccnc(Nc4ccc5[nH]ncc5c4)n3)c3ccccc23)n(-c2ccc(OCCN3CCOCC3)nc2)n1 [Example 15, 1-(4-((2-((1H-Indazol-5-yl)amino)pyrimidin-4-yl)oxy)naphthalen-1-yl)-3-(3-(tert-butyl)-1-(6-(2-morpholinoethoxy)pyridin-3-yl)-1H-pyrazol-5-yl)urea]	22 nM	< 1 nM	7 nM	1420 nM	1.6 nM	1.6 nM	2.1 nM	56%	−ve (−ve and +ve indicate that the value is below and above respectively, the no significant effect threshold, defined as 30% inhibition at 1 μg/mL at the time point indicated.)	−ve (−ve and +ve indicate that the value is below and above respectively, the no significant effect threshold, defined as 30% inhibition at 1 μg/mL at the time point indicated.)			
COc1ccc(-n2nc(C(C)(C)C)cc2NC(=O)Nc2ccc(Oc3ccnc(Nc4cc(C)c5[nH]ncc5c4)n3)c3ccccc23)cc1 [Example 42, 1-(3-(tert-butyl)-1-(4-methoxyphenyl)-1H-pyrazol-5-yl)-3-(4-((2-((7-methyl-1H-indazol-5-yl)amino)pyrimidin-4-yl)oxy)naphthalen-1-yl)urea]	67 nM	5 nM	5 nM	> 1530 nM	1.7 nM	1.4 nM	1.4 nM		−ve (−ve and +ve indicate that the value is below and above respectively, the no significant effect threshold, defined as 30% inhibition at 1 μg/mL at the time point indicated.)	+ve (−ve and +ve indicate that the value is below and above respectively, the no significant effect threshold, defined as 30% inhibition at 1 μg/mL at the time point indicated.)	50%	8.5 ± 1.5 ×10^5/mL	
CC(C)(C)c1cc(NC(=O)Nc2ccc(Oc3ccnc(Nc4ccc5[nH]ncc5c4)n3)c3ccccc23)n(-c2cccc(OCCN3CCOCC3)c2)n1 [Example 54, 1-(4-((2-((1H-indazol-5-yl)amino)pyrimidin-4-yl)oxy)naphthalen-1-yl)-3-(3-(tert-butyl)-1-(3-(2-morpholinoethoxy)phenyl)-1H-pyrazol-5-yl)urea]	11 nM	7 nM	9 nM	1980 nM	8.7 nM	24.8 nM	10.3 nM		−ve (−ve and +ve indicate that the value is below and above respectively, the no significant effect threshold, defined as 30% inhibition at 1 μg/mL at the time point indicated.)	−ve (−ve and +ve indicate that the value is below and above respectively, the no significant effect threshold, defined as 30% inhibition at 1 μg/mL at the time point indicated.)			0.4 nM
CC(C)(C)c1cc(NC(=O)Nc2ccc(Oc3ccnc(Nc4ccc5[nH]ncc5c4)n3)c3ccccc23)n(-c2ccc(=O)n(CCN3CCOCC3)c2)n1 [Example 88, 1-(4-((2-((1H-indazol-5-yl)amino)pyrimidin-4-yl)oxy)naphthalen-1-yl)-3-(3-(tert-butyl)-1-(1-(2-morpholinoethyl)-6-oxo-1,6-dihydropyridin-3-yl)-1H-pyrazol-5-yl)urea]	32 nM	3 nM	10 nM	2430 nM	18.8 nM	153 nM	35.9 nM	75%	−ve (−ve and +ve indicate that the value is below and above respectively, the no significant effect threshold, defined as 30% inhibition at 1 μg/mL at the time point indicated.)	−ve (−ve and +ve indicate that the value is below and above respectively, the no significant effect threshold, defined as 30% inhibition at 1 μg/mL at the time point indicated.)			
